This is an account of results in patent US12478614B2, “Inhibitors of glutathione s-transferases (GSTs) and NAD(P)H:quinone oxidoreductase 1 (NQO1), pharmaceutical compositions, and uses in managing cancer” (Emory University, priority 2020, dated 2025).

Assay [1] has as its target T1, GSTP1 (Homo sapiens, UniProt P09211). Description: In vitro enzyme activity assay, GSTP1. Type of assay: biochemical. Particulars: purified recombinant protein. Here is the method: (§1) To explore the anti-proliferative effects of MNPC, U87MG/EGFRVIII cells were treated with different doses of MNPC (0, 0.1, 0.5, 1 and 5 μM) for 5 days. […] Asparagine endopeptidase (AEP) is frequently overexpressed in numerous human cancers and mediates cancer cell invasion and metastasis. […] Since NQO1 and GSTP1 are the major binding proteins of MNPC, in vitro reductase enzyme activity assays with purified recombinant proteins was conducted. […] NQO1 also acts as an antioxidant enzyme by regenerating antioxidant forms of ubiquinone and vitamin E quinone. To explore whether the oxidative stress levels are correlated with the expression levels of antioxidant enzymes: NQO1 and GSTP1, the cellular ROS concentrations and cytotoxicity after MNPC treatment was examined. […] Thus, MNPC inhibits GSTP1 and NQ01 enzyme activities without altering their protein levels. […] The results were also confirmed by TUNEL assay.

Assay [2] concerns U87MG/EGFRvIII cells. Description: Proliferation of U87MG/EGFRvIII cells. Type of assay: cell-based. The procedure:
After structure-activity relationship (SAR) analysis, it was identified that that most compounds contained two aromatic rings bridged through an amide group.
as §1

Assay [3] deals with T1, GSTP1. Description: BIACORE binding assay, GSTP1. Particulars: MNPC immobilized to the chip.
The target in assay [4] is T2, NQO1 (Homo sapiens, UniProt P15559). Description: Co-crystal structure with NQO1. Here is the method: (§2) Experiments indicate that both NQO1 and GSTP1 were overexpressed in GBM, which inhibit the oxidative stress and prevent cancer cell death. Compounds which act as NQO1 and GSTP1 dual inhibitors suppress the proliferation and stimulated apoptosis in U87MG/EGFRVIII cells. […] Thus, these experiments indicate that a small dual inhibitor for both NQO1 and GSTP1 disrupting the redox homeostasis might be an innovative strategy for GBM therapy.

In assay [5] the test system is NQO1. Description: NQO1 protein level upon treatment. Type of assay: cell-based. As to conditions: upon MNPC treatment. The procedure: as §1
In assay [6] the target is T1, GSTP1. Description: Co-crystal structure with GSTP1. Here is the method: as §2
Assay [7] has as its target T2, NQO1. Description: BIACORE binding assay, NQO1. Particulars: MNPC immobilized to the chip. In general terms: SPR reads the build-up and loss of mass on a sensor chip optically.
The next assay has as its system U87MG/EGFR cells. Description: Cellular oxidative stress and cytotoxicity after MNPC treatment. The assay is classed as cell-based. Here is the method:
as §1

The test system of assay [8] is U87MG/EGFRvIII cells. Description: Murine intracranial xenograft model with U87MG/EGFRvIII cells. The assay is classed as in vivo, Nu/Nu nude mice. The procedure: Nu/Nu nude mice were treated with increasing doses (3, 10 mg/kg) of MNPC by i.p. every two days for total 10 times (n=6 mice per group). The survival curves of brain tumor-bearing mice were calculated.
To assess the therapeutic potential of MNPC, a murine intracranial xenograft model was used, inoculated with U87MG/EGFRvIII cells. After 7 days of brain injection of the GBM cells and the tumor formation, the animals were treated with vehicle or different doses of MNPC (3 or 10 mg/kg) every 2 days for a total of 10 times. […] The ROS levels and signaling cascades were examined in the tissue samples derived from tumors extracted from MNPC or vehicle-treated mice.

The subject of assay [9] is U87MG/EGFRvIII cells. Description: Cell invasion assay. Type of assay: cell-based. Here is the method:
as §1

Assay [10] addresses T3, Asparagine endopeptidase (AEP) (Homo sapiens, UniProt Q99538).
T3 construct: endogenous in cells; host or cells: U87MG/EGFRvIII (inferred from context)
T3 sequence (Q99538 18-323): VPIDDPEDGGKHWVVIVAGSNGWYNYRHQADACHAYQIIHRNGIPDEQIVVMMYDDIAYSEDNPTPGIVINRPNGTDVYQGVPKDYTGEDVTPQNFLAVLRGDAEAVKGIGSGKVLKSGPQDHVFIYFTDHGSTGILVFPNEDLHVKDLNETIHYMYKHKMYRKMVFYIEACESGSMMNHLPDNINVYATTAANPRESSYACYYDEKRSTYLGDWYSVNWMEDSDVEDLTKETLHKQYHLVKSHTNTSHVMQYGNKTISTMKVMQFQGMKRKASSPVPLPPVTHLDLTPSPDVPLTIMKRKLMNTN
Description: AEP enzymatic activity assay. Type of assay: cell-based. The procedure: as §1

The target in assay [11] is T2, NQO1. Description: In vitro reductase enzyme activity assay, NQO1. Type of assay: biochemical. As to conditions: purified recombinant protein. Here is the method:
as §1

The subject of assay [12] is U87MG/EGFRvIII cells. Description: Apoptosis (caspase-3 activation, TUNEL assay). The assay is classed as cell-based. The procedure:
as §1

The subject of assay [13] is GSTP1. Description: GSTP1 protein level upon treatment. As to conditions: upon MNPC treatment. Type of assay: cell-based. Here is the method:
as §1

Setting [14] is: 3 or 10 mg/kg i.p. every 2 days, 10 times, especially 10 mg/kg.

“Also recorded” adds a separate entry of the source.

The IC50 is the point on the concentration scale where inhibition reaches its midpoint. The Kd is the concentration at which binding is half-saturated. `Cc1onc(-c2ccccc2)c1C(=O)Nc1ncc([N+](=O)[O-])s1` [MNPC, 5-methyl-N-(5-nitrothiazol-2-yl)-3-phenylisoxazole-4-carboxamide]: the IC50 was found to be 797 nM at GSTP1 [1] and 926 nM on NQO1 [11]. The cell proliferation entry in the assay with U87MG/EGFRvIII cells [2] (U87MG/EGFRVIII cells, 0, 0.1, 0.5, 1 and 5 μM for 5 days) is listed as “dose-dependently inhibited”. In addition, the figures for the equilibrium dissociation constant (Kd) at GSTP1 [3] and on NQO1 [7] were 89.6 nM and 90.8 nM, respectively. In addition, the “effect on NQO1 active site in co-crystal structure” value on NQO1 [4] is given as “blocked the active enzymatic sites”. Moreover, the “protein level of NQO1” value in the assay with NQO1 [5] is “not changed”. On GSTP1 [6], the “effect on GSTP1 active site in co-crystal structure” value was “blocked the active enzymatic sites”. For the same molecule, in the assay with U87MG/EGFR cells, the “Carbonyl Expression” value is reported as “escalated”. The LDH entry in the assay on U87MG/EGFR cells (cytotoxicity) is listed as “escalated”. Besides, in the assay with U87MG/EGFR cells (dose-dependent), the ROS levels entry is reported as “increased”. The GSH/GSSH ratios entry in the assay with U87MG/EGFR cells (in a dose-dependent manner) is reported as “down-regulated”. Further, the “tumor growth (intracranial tumor volume)” value in the assay on U87MG/EGFRvIII cells [8] (3 or 10 mg/kg i.p. every 2 days, 10 times) is “dose-dependent anti-tumor effect; also recorded: suppresses tumor growth”. In addition, the body weight result in the assay on U87MG/EGFRvIII cells [8] (setting [14]) is reported as “significantly increased”. The survival rates result in the assay on U87MG/EGFRvIII cells [8] (setting [14]) is listed as “prolonged the survival rate; also recorded: significantly increased; also recorded: elongates mouse life span”. For the same molecule, the “ROS levels in tumor tissue samples” value with U87MG/EGFRvIII cells [8] (tumors from treated mice) is “strongly increased”. Moreover, the “apoptotic caspase 3 in tumor tissue samples” value with U87MG/EGFRvIII cells [8] (tumors from treated mice) was “activated”. Moreover, the cell invasion result with U87MG/EGFRvIII cells [9] was “no significant difference”. In assay [10], the AEP enzymatic activity result was “no significant difference”. In addition, the cell apoptosis entry in the assay on U87MG/EGFRvIII cells [12] (TUNEL assay) is “dose-dependently increases”. Also, the caspase-3 activation entry with U87MG/EGFRvIII cells [12] (U87MG/EGFRvIII cells) is recorded as “induced”. In addition, in the assay on GSTP1 [13], the “protein level of GSTP1” value is reported as “not changed”.

In the case of `CC(=O)Oc1ccccc1C(=O)Nc1ncc([N+](=O)[O-])s1` [NTZ, 2-((5-nitrothiazol-2-yl)carbamoyl)phenyl acetate], the “anti-proliferative activities toward U87MG/EGFRvIII cells compared with MNPC” value with U87MG/EGFRvIII cells [2] is recorded as “comparable anti-proliferative activities”.

As to `O=C(Nc1ncc([N+](=O)[O-])s1)c1ccccc1O` [TIZ, 2-hydroxy-N-(5-nitrothiazol-2-yl)benzamide], the “anti-proliferative activities toward U87MG/EGFRvIII cells compared with MNPC” value with U87MG/EGFRvIII cells [2] is “comparable anti-proliferative activities”.
